Measured values as given in patent US4180577A, “Furo[2, 3d]pyrimidine derivatives and anti-ulcer containing the same” (Eisai Co., Ltd., priority 1974, dated 1979).
Several values for one entry are separate records, joined by “and”; a condition that tells them apart may be missing. Equal entries are not always repeated. Structures can show the parent of a compound that is named as a salt.

Key:
[1] = tested on: Secretion of Gastric Juice; experiment: Effect for Secretion of Gastric Juice (pylorus-ligated rats, Shay method); assay type: in vivo, male rats of SD strain; conditions: rat, 100 mg/Kg, into the duodenum; for Amount of gastric juice Vol. / Free Acid Output / Total Acid Output: 4 hours; for Amount of gastric juice Vol.: control 1.78 ± 0.26; for Free Acid Output: control 133.2 ± 32.7; for Total Acid Output: control 154.0 ± 36.0; for suppression of the amount of the gastric juice / suppression of the free acid output / suppression of the total acid output: vs control group
Protocol: (§1) The compounds to be tested were suspended in 5% serous gum arabic solution, so as to adjust their concentration to 0.5 ml/100 g B.W. for oral administration, or 0.2 ml/100 g B.W. for duodenum administration. Indomethacin, [1-(p-chlorobenzoyl)-5-methoxy-2-methylindole-3-acetic acid] for control was suspended in 5% serous gum arabic solution, so as to adjust its concentration to 0.5 ml/100 g B.W.
The solutions of the compounds to be tested were adjusted to pH 5.0, and administered into the duodenum. The bellys were closed. After 4 hours, the animals were slaughtered by anesthesia, and the gastric juice was collected.
The volume of the gastric juice was measured and titrated by N/50 NaOH solution with Topfer indicator and phenolphthalein indicator, to determine the free acid output the total acid output, respectively.
The compounds to be tested were administered into the duodenum immediately after ligaturing the pylorus.
The medicine solution was adjusted to pH 5.0 with N--NaOH solution.

[2] = tested on: Immersive Stress-induced Ulcer; experiment: Inhibitory Effects on the Immersive Stress-induced Ulcer; assay type: in vivo, female rats of SD strain; conditions: rat, oral; for Percentage of inhibition (ulcer index): vs control; for Ulcer index: control 80.4 ± 3.5
Protocol: as §1
According to the method by K. Takagi et al. [Jap. J. Pharmacol. 18, 9 )1968)], female rats (weighing about 160 g) of SD strain were put in a cage made of wire gauze for restraint, dipped in a water bath at the temperature of 23° C. so as to cover the lower end of their breast bones, and allowed to stand for 20 hours. The animals were then slaughtered by the anesthesia, and their stomaches were extirpated. The stomaches were inflated with 10 ml of physiological saline water, and dipped in 0.5% neutral formalin solution for about 5 minutes according to the method by D. A. Brodie et al [Gastroenterology 38, 354-360 (1960)]. The stomaches were then incised along the greater curvature. The length of each ulcer (erosion) generated at adeno-stomach was measured. The total of said lengthes were assigned as the ulcer index.
The compounds to be tested were orally administered prior to the immersion.

[3] = tested on: Ligature Ulcer of the Pylorus; experiment: Effect on Ligature Ulcer of the Pylorus; assay type: in vivo, male rats of SD strain; conditions: rat, 300 mg/Kg, into the duodenum, 17 hours
Protocol: as §1
According to the method by H. Shay et al. [Gastroenterology 5, 43 (1945)], male rats (weighing about 320 g) of SD strain were fasted for 24 hours, and then incised the belly under the ether rausch anesthesia, and finally ligatured the pyloruses. The solution of compounds to be tested were adjusted to pH 5.0, and administered into the duodenum. The bellys were closed. After subsequent 17 hours, the animals were slaughtered by the anesthesia, and their stomaches were extirpated. More particularly, the stomaches were incised along the greater curvature. The ulcer generated at forestomach was ranged as shown in the following. The total of the ranking was named as the ulcer index.
Greater than 1 mm, but not greater
Greater than 3 mm, but not greater
Greater than 5 mm, but not greater

[4] = tested on: Indomethacin-induced Ulcer; experiment: Effects on Indomethacin-induced Ulcer; assay type: in vivo, Wister strain male rats; conditions: rat, oral, 30 minutes prior to Indomethacin 40 mg/Kg; for Percentage of inhibition (ulcer index): vs control; for Ulcer index: control 9.30 ± 3.09; for Percentage of Incidence of Ulcer: control 75
Protocol: as §1
Wister strain male rats (weighing about 230 g) were subjected to the fast for 24 hours. 40 mg/Kg of the Indomethacin were orally administered, respectively. After 4 hours from the administration, the animals were slaughtered and their stomaches were extirpated. The subsequent procedures were carried out in accordance with the pharmacological experiment 3.
The compounds to be tested were orally administered 30 minutes prior to the administration of Indomethacin.

[5] = tested on: Cold-restraint Stress Induced Ulcer; experiment: Inhibitory Effects on Cold-restraint Stress Induced Ulcer; assay type: in vivo, female rats of SD strain; conditions: rat, oral; for Percentage of inhibition (ulcer index) / Ulcer index: 30 minutes prior to stress; for Percentage of inhibition (ulcer index): vs control, hydrobromide; for Ulcer index: control 14.8 ± 1.7
Protocol: as §1
This experiment was effected by referring to the method by S. Dai et al. [Eur. J. Pharmaco. 26, 15-21 (1974)] and the method by M. M. Goldenberg et al. [Am. J. Dic. Dis 19, 4, 353-360 (1974)].
Female rats of SD strain (weighing about 180 g) were restrained in a cage made of wire gauze, and the cage was allowed to stand in a room at the low temperature at 4° C. for two hours. After subsequent two hours, the animals were slaughtered. The stomaches were extirpated. Thereafter, the subsequent procedure was carried out in accordance with the pharmacological experiment 3.
The compounds to be tested were orally administered 30 minutes prior to exposure of the stress.

CSc1nc(N)c2c(C)coc2n1 [B, 2-Methylmercapto-4-amino-5-methyl-furo[2, 3d]pyrimidine hydrobromide]
Amount of gastric juice Vol. [1]: 0.51 ± 0.09 (ml)/100g B.W. | Free Acid Output [1]: 16.5 ± 5.5 μEq/100g B.W. | Total Acid Output [1]: 37.8 ± 5.6 μEq/100g B.W. | suppression of the amount of the gastric juice [1]: over 54% | suppression of the free acid output [1]: over 69% | suppression of the total acid output [1]: over 57%

C=CCSc1nc(N)c2c(C)coc2n1 [C, 2-Allylmercapto-4-amino-5-methyl-furo[2, 3d]pyrimidine]
Amount of gastric juice Vol. [1]: 0.49 ± 0.11 (ml)/100g B.W. | Free Acid Output [1]: 18.2 ± 7.1 μEq/100g B.W. | Total Acid Output [1]: 33.1 ± 7.6 μEq/100g B.W. | suppression of the amount of the gastric juice [1]: over 54% | suppression of the free acid output [1]: over 69% | suppression of the total acid output [1]: over 57%

CCSc1nc(N)c2c(C)coc2n1 [Compound A, 2-Ethylmercapto-4-amino-5-methyl-furo[2, 3d]pyrimidine hydrobromide]
Percentage of inhibition (ulcer index) ([2]; 150 mg/Kg): 21.0% | Ulcer index ([2]; 150 mg/Kg): 63.5 ± 6.5 mm | Percentage of inhibition (ulcer index) ([2]; 300 mg/Kg): 38.7% | Ulcer index ([2]; 300 mg/Kg): 49.3 ± 3.4 mm | dose dependence of ulcer inhibition ([2]; 150 and 300 mg/Kg): dose dependent | Amount of gastric juice Vol. [1]: 0.81 ± 0.15 (ml)/100g B.W. | Free Acid Output [1]: 41.0 ± 16.6 μEq/100g B.W. | Total Acid Output [1]: 65.8 ± 20.4 μEq/100g B.W. | suppression of the amount of the gastric juice [1]: over 54% | suppression of the free acid output [1]: over 69% | suppression of the total acid output [1]: over 57% | Percentage of inhibition (ulcer index) ([3]; vs control): 100% | Ulcer index ([3]; control 54 ± 14): 0 ± 0 mm | Percentage of inhibition (ulcer index) ([4]; 25 mg/Kg): 82% | Ulcer index ([4]; 25 mg/Kg): 1.67 ± 1.00 mm | Percentage of Incidence of Ulcer ([4]; 25 mg/Kg): 38% | Percentage of inhibition (ulcer index) ([4]; 50 mg/Kg): 100% | Ulcer index ([4]; 50 mg/Kg): 0 ± 0 mm | Percentage of Incidence of Ulcer ([4]; 50 mg/Kg): 0% | Percentage of inhibition (ulcer index) ([4]; 100 mg/Kg): 98% | Ulcer index ([4]; 100 mg/Kg): 0.20 ± 0.19 mm | Percentage of Incidence of Ulcer ([4]; 100 mg/Kg): 13% | Percentage of inhibition (ulcer index) ([5]; 50 mg/Kg, 50 mg/kg): 78.4% and 78% | Ulcer index ([5]; 50 mg/Kg): 3.2 ± 1.0 mm | Percentage of inhibition (ulcer index) ([5]; 100 mg/Kg, 100 mg/kg): 85.8% and 86% | Ulcer index ([5]; 100 mg/Kg): 2.1 ± 0.6 mm | dose dependence of ulcer inhibition ([5]; 50 and 100 mg/Kg): dose dependent
